Assay results as given in patent US4965066A, “Intranasal administration of 3,3-disubstituted indolines” (E. I. Du Pont de Nemours and Company, priority 1989, dated 1990).

Assay: in vivo
Conditions: rat
Protocol: Male Lewis rats weighing approximately 300 g were used. […] This dose was administered by gavage. The nasal dose of (1') was administered to rats after surgical isolation of the nasal cavity. The trachea was cannulated to allow free breathing, and a closed tube was inserted anteriorly through the esophagus to block the posterior part of the nasal cavity. The incisive ducts were closed with an adhesive to prevent drainage into the mouth. The dose was administered through the nares with a microliter syringe via polyethylene tubing. […] Serial blood samples (~0.5 ml) were collected into heparinized test tubes after cutting the tip of the tail. […] Aliquots of the acid were injected onto the HPLC. […] Du Pont) attached to a guard column packed with cyano packing. A liter of mobile phase contained […] of 0.1 M acetate buffer at pH 3.5, 480 ml acetontrile, 5 ml tetrahydrofuran, and 0.75 g sodium heptanesulfonate. […] Detection was by ultraviolet (uv) absorbance at 252 nm. The detection limit was 0.12 μg/ml plasma. […] Systemic bioavailability after oral and nasal doses was calculated for each rat as the ratio of AUC^oral or ^nasal /AUC^iv, using the average AUC^iv and correcting for the differences in dose. Values are expressed as percentage (%) of dose.

Tmax (1 mg/kg): ≤ 10 min
Bioavailability (F) (2 mg/kg): 100 % of Dose
AUC at 3 h (4 mg/kg): 1340 ± 140 ng·h/mL
bioavailability (4 mg/kg, Nasal Bioavailability (F)): 53 ± 5.5%
AUC at 3 h (iv, 2 mg/kg): 1260 ± 90 ng·h/mL
AUC at 3 h (po, 20 mg/kg): 1150 ± 240 ng·h/mL
bioavailability (po, 20 mg/kg, Oral Bioavailability (F)): 9.1 ± 1.9%
SMILES: O=C1N(c2ccccc2)c2ccccc2C1(Cc1ccncc1)Cc1ccncc1 [1']
